The text below walks through data of patent US5368841A, “Photodynamic therapy for the destruction of the synovium in the treatment of rheumatoid arthritis and the inflammatory arthritides” (The General Hospital Corporation, priority 1993, dated 1994).

For series [1] the following is noted: rabbit, in vivo.
Series [2] has as its system 5PAM (murine squamous cell carcinoma). As to the kind of experiment: Intracellular PpIX synthesis versus cell proliferation rate (Table 4). Type of series: cell-based. Particulars: Dt 14 h.
The subject of series [3] is NBT-2 (rat bladder carcinoma). The series is described as above. The note with it: Dt 13.5 h. It counts as cell-based.
Series [4] has as its system HSF (human skin fibroblast). Described as above. It counts as cell-based. Particulars: Dt 27 h.
Series [5] deals with EJ (human bladder carcinoma). Described as above. It counts as cell-based. The note with it: Dt 23 h.
For series [6] the following is noted: rabbit, in vivo. This is another data set of the same source.
Protocol: Photochemotherapeutic synovectomy was performed on an antigen induced arthritis (AIA) model in 12 New Zealand white rabbits in a double control study. After a six week sensitization period, the joints of all animals were challenged bilaterally with an injection of albumin suspended in Freund's adjuvant. After five days, eight animals received systemic injections of 2 mg/kg of Photophrin® II. At 24 hours, four animals underwent bilateral arthrotomy procedures. The right knee joint of each was exposed to 100J/cm2 of 630 nm laser light over a 20 minute period. The left knees, not receiving the laser light application, served as controls. At 48 hours post HPD injection, an additional 4 animals underwent the identical operative procedures. Post-operatively, all animals were returned to their cages and allowed free movement. […] At one month post treatment, animals were sacrificed, knee joint synovium was then harvested, fixed, and stained with H and E for pathological evaluation.
On the set-up of series [7]: species or system New Zealand White rabbits. The note with it: rabbit, in vivo. How it is done: (§1) Thirty New Zealand White rabbits weighing 2-4 kg were sensitized over a six week period with two cutaneous injections of ovalbumin suspended in Fruends adjuvant. At six weeks, the knee joints of all animals were challenged with an intra-articular injection of ovalbumin solution. Seven days following joint challenge, 25 animals received systemic intravenous injections with Photofrin® (2.0 mg/kg). Animals were killed at 6, 12, 24, 48 and 72 hours post Photofrin® injection and tissue samples were obtained of skin, quadriceps muscle, knee synovium, articular cartilage, meniscus, bone and tendon. Tissue weight was measured (Mettler AE 163 balance) and tissue samples were frozen at -90 degrees C. (Revco Ultra Low Freezer) until dye extraction.
For extraction, tissue samples were homogenized (Homogenizer, Model PT 10/35, Brinkman Instruments, Co., Westbury, N.Y.) in 8 cc 0.1N NaOh solution. Each sample was centrifuged at 17,000 RPM (Sorvall RC-5B, refrigerated superspeed centrifuge, DuPont instruments) for 20 minutes. The fluorescence of 2 cc of supernatant was measured with a spectrofluorometer (Model Flourolog 2, Spex Industries, Inc., Edison, N.J.) and compared to that of standard solutions of Photofrin® with known concentration, and Photofrin® mixed with supernatant of extracted control quadriceps muscle. The excitation wavelength 366 nm and fluorescence spectrum between 600 and 700 nm was analyzed. Untreated animals will served as controls and for background correction.

Details of series [8]: species or system New Zealand White rabbits. The note with it: rabbit, in vivo. The method, then:
as §1
The biodistribution of Photophrin® within synovium, articular cartilage and meniscus was also studied with fluorescence microscopy. At each of the harvest intervals of 6, 12, 24, 48 and 72 hours post injection, tissue specimens were obtained from experimental and control animals. Samples were placed in O.C.T. medium and frozen at -90 C. Unstained frozen sections at 10 microns were prepared using a cryostat (Microm, Inc., Heidelberg, Germany) and analyzed with a fluorescence microscope (Axiophot, Zeiss, Oberkochen, Germany) under epiluminescence of a mercury lamp (HBO 200 W/2, Zeiss). […]
This is another data set of the same source.

Regarding `NCC(=O)CCC(=O)O` [ALA, δ-aminolevulinic acid], in series [1], the “ALA observed in the synovium” value is listed as “large amounts”.

For the compound `C=CC1=C(C)c2cc3[nH]c(cc4nc(cc5[nH]c(cc1n2)c(C)c5CCC(=O)O)C(CCC(=O)O)=C4C)c(C)c3C=C` [PpIX, Protoporphyrin IX], the “Intracellular PpIX (4 h)” value in series [2] stood at 160 a moles/cell; in series [3] it was 160 a moles/cell; in series [4] it was 40 a moles/cell; in series [5] it was 100 a moles/cell.

Take Photofrin®: the “side effects of synovium destruction” value in series [6] is given as “without significant side effects”. Also, in series [7], the “selectivity of uptake in inflamed synovium” value is “selectively taken up in synovium at 24 and 48 hours post systemic injection”; the “uptake in articular cartilage, meniscus, muscle and tendon” value was “insignificant”. Moreover, in series [7] (iv, 2 mg/kg), the “Photofrin® concentration in tissue (inflamed synovium)” value was “greater than 4 micrograms/gram of tissue” and the “time of maximum uptake in inflamed synovium” value stood at 48 h. For the same compound, the “uptake by fluorescence microscopy in synovium” value in series [8] is “significant uptake at 12, 24, 48 and 72 hours”.
